In the supplement of paper PMC10627819:

Tests used:
[1] = system: B. subtilis 168; assay: Bliss interaction score (quartile over a dose matrix) (fitness difference); higher = more antagonism (negative = synergy)
Method in brief: (§1)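 Growth in each well was taken as OD595 at entry into stationary phase. Dividing by the plate's robust no-drug mean and capping at 1 gave fitness, and single-drug fitness was inferred from the combination data. The Bliss score, observed minus product-expected fitness, is summarised by quartiles over technical, biological and donor/recipient replicates.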

[2] = system: S. aureus Newman; assay: as above
Method in brief: as §1

[3] = system: S. pneumoniae D39V; assay: as above
Method in brief: as §1

[4] = system: S. aureus DSM 20231; assay: as above
Method in brief: as §1

[5] = system: S. aureus Newman; assay: fitness (endpoint OD595 vs no drug) (fraction); higher = more growth
Method in brief: (§2)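 Fitness expresses the optical density reached at the stationary-phase transition as a fraction of the robust mean of no-drug control wells. It is capped at 1. Measurements were OD595 every 30 min for 14 h at 37 °C after inoculation of 384-well plates at OD595 0.01 (30 µl, or 55 µl for S. pneumoniae), minus the first reading.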

[6] = system: S. pneumoniae D39V; assay: as above
Method in brief: as §2

[7] = system: S. aureus DSM 20231; assay: as above
Method in brief: as §2
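Throughout, for Bliss interaction score (quartile over a dose matrix): first quartile when negative (synergy) and third quartile when positive (antagonism).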

CO/N=C(\C(=O)N[C@@H]1C(=O)N2C(C(=O)[O-])=C(C[N+]3(C)CCCC3)CS[C@H]12)c1csc(N)n1 [Cefepime] + CC1=C\[C@@H](O)CC(=O)Cc2nc(co2)C(=O)N2CCC=C2C(=O)O[C@H](C(C)C)[C@H](C)/C=C/C(=O)NC\C=C\1 [Virginiamycin M1]
Details | Bliss interaction score
[1] | 0.062
[2] | -0.0566
[3] | 0.0257
[4] | 0.0738

Details | fitness
[5], first compound 0.125 µg/mL, partner 0.0625 µg/mL | 0.936
[5], first compound 0.125 µg/mL, partner 0.125 µg/mL | 0.932
[5], first compound 0.125 µg/mL, partner 0.25 µg/mL | 0.943
[5], first compound 0.25 µg/mL, partner 0.0625 µg/mL | 0.869
[5], first compound 0.25 µg/mL, partner 0.125 µg/mL | 0.848
[5], first compound 0.25 µg/mL, partner 0.25 µg/mL | 0.863
[5], first compound 0.5 µg/mL, partner 0.0625 µg/mL | 0.768
[5], first compound 0.5 µg/mL, partner 0.125 µg/mL | 0.792
[5], first compound 0.5 µg/mL, partner 0.25 µg/mL | 0.775
[6], first compound 0.007 µg/mL, partner 0.5 µg/mL | ≥ 1
[6], first compound 0.007 µg/mL, partner 1 µg/mL | ≥ 1
[6], first compound 0.007 µg/mL, partner 2 µg/mL | 0.992
[6], first compound 0.0078 µg/mL, partner 2 µg/mL | 0.958
[6], first compound 0.014 µg/mL, partner 0.5 µg/mL | ≥ 1
[6], first compound 0.014 µg/mL, partner 1 µg/mL | ≥ 1
[6], first compound 0.014 µg/mL, partner 2 µg/mL | ≥ 1
[6], first compound 0.0155 µg/mL, partner 2 µg/mL | 0.946
[6], first compound 0.028 µg/mL, partner 0.5 µg/mL | 0.979
[6], first compound 0.028 µg/mL, partner 1 µg/mL | 0.956
[6], first compound 0.028 µg/mL, partner 2 µg/mL | 0.969
[6], first compound 0.031 µg/mL, partner 2 µg/mL | 0.851
[7], first compound 0.125 µg/mL, partner 0.0625 µg/mL | 0.97
[7], first compound 0.125 µg/mL, partner 0.125 µg/mL | 0.932
[7], first compound 0.125 µg/mL, partner 0.25 µg/mL | 0.895
[7], first compound 0.25 µg/mL, partner 0.0625 µg/mL | 0.78
[7], first compound 0.25 µg/mL, partner 0.125 µg/mL | 0.902
[7], first compound 0.25 µg/mL, partner 0.25 µg/mL | 0.862
[7], first compound 0.5 µg/mL, partner 0.0625 µg/mL | 0.832
[7], first compound 0.5 µg/mL, partner 0.125 µg/mL | 0.969
[7], first compound 0.5 µg/mL, partner 0.25 µg/mL | 0.904

fitness, one replicate
Details | first compound 0.0078 µg/mL | first compound 0.0155 µg/mL | first compound 0.031 µg/mL | first compound 0.125 µg/mL | first compound 0.25 µg/mL | first compound 0.5 µg/mL
[5], partner 0.5 µg/mL | – | – | – | 0.865 | 0.819 | 0.732
[5], partner 1 µg/mL | – | – | – | 0.873 | 0.916 | 0.768
[5], partner 2 µg/mL | – | – | – | 0.888 | 0.798 | 0.706
[6], partner 0.15 µg/mL | ≥ 1 | ≥ 1 | ≥ 1 | – | – | –
[6], partner 0.3 µg/mL | ≥ 1 | ≥ 1 | 0.963 | – | – | –
[6], partner 0.5 µg/mL | ≥ 1 | 0.948 | 0.782 | – | – | –
[6], partner 1 µg/mL | 0.958 | 0.962 | 0.686 | – | – | –
[7], partner 0.5 µg/mL | – | – | – | 0.887 | 0.892 | 0.866
[7], partner 1 µg/mL | – | – | – | 0.86 | 0.878 | 0.948

CC1(C)S[C@@H]2[C@H](NC(=O)[C@H](N)c3ccc(O)cc3)C(=O)N2[C@H]1C(=O)O [Amoxicillin] + O=C(O[C@@H]1Cc2c(O)cc(O)cc2O[C@@H]1c1cc(O)c(O)c(O)c1)c1cc(O)c(O)c(O)c1 [EGCG]
Details | Bliss interaction score
[1] | 0.0413
[2] | 0.0679
[3] | -0.0544
[4] | 0.0606

fitness
Details | partner 12.5 µg/mL | partner 25 µg/mL | partner 50 µg/mL
[5], first compound 0.0625 µg/mL | 0.751 | 0.714 | 0.638
[5], first compound 0.125 µg/mL | 0.757 | 0.741 | 0.681
[5], first compound 0.25 µg/mL | 0.729 | 0.751 | –
[6], first compound 0.0008 µg/mL | 0.969 | 0.911 | 0.984
[6], first compound 0.0015 µg/mL | 0.92 | 0.922 | –
[6], first compound 0.003 µg/mL | 0.851 | 0.912 | 0.894
[7], first compound 0.0625 µg/mL | 0.528 | 0.516 | 0.513
[7], first compound 0.125 µg/mL | 0.363 | 0.411 | 0.376
[7], first compound 0.25 µg/mL | 0.171 | 0.0387 | 0.108
[7], first compound 0.5 µg/mL | 0.0001 | 0.0081 | 0

[6], first compound 0.006 µg/mL, one replicate
Details | fitness
partner 12.5 µg/mL | 0.412
partner 25 µg/mL | 0.545
partner 50 µg/mL | 0.601
